Data published in patent US11497942B2, “Cosmetic or dermatological preparation comprising a combination of a dye and an anti-inflammatory active ingredient” (BEIERSDORF AG, priority 2003, dated 2022).

Experiments:
[1] = Polarity of lipids and oils: interfacial tension towards water; type: physicochemical
Excerpt: It has already been proposed to adopt interfacial tension towards water as a measure of the polarity index of an oil or of an oil phase. This means that the greater the polarity of the oil phase in question, the lower the interfacial tension between this oil phase and water. According to the invention, the interfacial tension is regarded as being one possible measure of the polarity of a given oil component.

[2] = cited from earlier work

Row | Compound | Polarity ([1]; mid-polar lipids) [mN/m] | other results
1 | CCCCCCCC(=O)OC(=O)OC(=O)CCCCCCC [Cetiol CC, Dicaprylyl Carbonate] |  | Polarity ([1]; nonpolar lipids): 31.7 mN/m
2 | C=CC(C)(C)c1cc(/C=C/C(=O)c2ccc(O)cc2)c(OC)cc1O [licochalcone A] |  | solubility [2]: sparingly soluble
3 | Cyclomethicone [DC Fluid 345] | 28.5 | Polarity ([1]; silicone oils): 28.5 mN/m
4 | Cyclopolydimethylsiloxan [Dow Corning Fluid 244] | 28.5 | 
5 | Phenyltrimethicone [Silicone oil VP 1120] | 22.7 | 
